How the values were obtained:
MC1-R [1] = molecular target: T1, MC1-R (Mus musculus, UniProt Q01727); assay: Competitive inhibition assay using [I^125]-NDP-α-MSH, B-16 mouse melanoma cell membranes; assay type: binding; settings: for inhibition at 1 µM: 1 μM test compound, read-out: Inhibition at 1 μM (NDP-α-MSH) In Normal System, MC1-R; for Ki: read-out: Ki (nM) (NDP-α-MSH) In Normal System, MC1-R
T1 construct: B-16 mouse melanoma cells (containing MC1-R); endogenous in cells
Summary of the method: (§1)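 Tracer was 0.4 nM for MC3-R and MC5-R, 0.2 nM for MC4-R and 0.1 nM for MC1-R. Bound radioactivity was gamma-counted after filtration; values are triplicate means, with results below 0% reported as 0%.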

MC1-R [2] = molecular target: T1, MC1-R; assay: cAMP functional activity assay in B-16 mouse melanoma cells; assay type: cell-based; settings: 1 μM concentration where stated
Method: (§2) General method for EC50 determination in functional activity assay. […] Data analysis and EC50 values were determined using nonlinear regression analysis with Prism Graph-Pad software.
(§3) Functional status. The agonist/antagonist status with respect to MC1-R, MC-3R, MC4-R and MC5-R of certain compounds of the invention was determined. Antagonistic activity was determined by measuring the inhibition of α-MSH-induced or NDP-α-MSH-induced cAMP levels following exposure to graded doses of compounds as in the preceding descriptions.

[3] = IP (and IN) food intake, mice; assay type: in vivo; settings: mouse, IP, 4 hours
Summary of the method: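 Male Sprague-Dawley rats dosed IV (0.5-3, up to 10 mg/kg) or IP (0.5-10, up to 50 mg/kg); male C57BL/6 mice dosed IP. Change in food intake and body weight over 24 h post-dose versus 1-week vehicle baseline, with 48 and 72 h reversal checks.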

MC3-R [4] = molecular target: T2, MC3-R (Homo sapiens, UniProt P41968); assay: Competitive inhibition assay using [I^125]-NDP-α-MSH, hMC3-R membranes; assay type: binding; parameters: expressed in transfected cells; settings: 1 μM test compound; read-out: Inhibition at 1 μM (NDP-α-MSH) In Normal System, MC3-R
T2 sequence (P41968 whole entry): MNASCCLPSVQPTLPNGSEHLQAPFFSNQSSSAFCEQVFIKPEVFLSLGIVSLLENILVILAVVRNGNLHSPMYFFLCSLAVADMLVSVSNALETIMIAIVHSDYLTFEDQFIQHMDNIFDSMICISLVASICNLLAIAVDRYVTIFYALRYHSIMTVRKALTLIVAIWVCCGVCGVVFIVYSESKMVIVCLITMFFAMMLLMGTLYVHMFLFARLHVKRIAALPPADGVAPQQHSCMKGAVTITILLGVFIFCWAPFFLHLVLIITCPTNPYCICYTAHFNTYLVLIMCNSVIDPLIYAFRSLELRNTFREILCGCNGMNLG
Summary of the method: as §1

MC5-R [5] = molecular target: T3, MC5-R (Homo sapiens, UniProt P33032); assay: Competitive inhibition assay using [I^125]-NDP-α-MSH, hMC5-R membranes; assay type: binding; parameters: expressed in transfected cells; settings: 1 μM test compound; read-out: Inhibition at 1 μM (NDP-α-MSH) In Normal System, MC5-R
T3 sequence (P33032 whole entry): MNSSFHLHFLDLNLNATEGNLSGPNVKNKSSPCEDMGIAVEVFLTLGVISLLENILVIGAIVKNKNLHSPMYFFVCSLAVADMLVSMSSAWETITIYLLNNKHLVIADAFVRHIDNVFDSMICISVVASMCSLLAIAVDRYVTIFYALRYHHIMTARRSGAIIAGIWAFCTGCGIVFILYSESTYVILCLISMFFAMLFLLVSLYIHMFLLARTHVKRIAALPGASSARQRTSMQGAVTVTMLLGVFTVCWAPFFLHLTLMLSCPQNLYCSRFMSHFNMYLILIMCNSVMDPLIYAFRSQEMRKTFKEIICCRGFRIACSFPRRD
Summary of the method: as §1

MC4-R [6] = molecular target: T4, MC4-R (Homo sapiens, UniProt P32245); assay: cAMP functional activity assay in HEK-293 cells, normal system; assay type: cell-based; parameters: expressed in transfected cells; host or cells: HEK-293; settings: for functional status at MC4-R in cAMP assay: normal system, 1 μM concentration where stated; for intrinsic activity at MC4-R in a normal system: normal receptor density system, NDP-α-MSH = 1.0
T4 sequence (P32245 whole entry): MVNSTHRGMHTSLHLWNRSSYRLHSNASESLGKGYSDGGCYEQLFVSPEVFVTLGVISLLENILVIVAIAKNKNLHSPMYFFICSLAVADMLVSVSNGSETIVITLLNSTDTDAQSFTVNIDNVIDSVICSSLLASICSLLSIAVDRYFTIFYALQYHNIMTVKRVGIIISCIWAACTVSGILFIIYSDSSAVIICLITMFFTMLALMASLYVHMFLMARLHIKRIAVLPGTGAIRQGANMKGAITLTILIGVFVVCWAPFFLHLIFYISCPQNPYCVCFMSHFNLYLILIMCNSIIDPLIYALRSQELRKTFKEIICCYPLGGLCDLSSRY

MC5-R [7] = molecular target: T3, MC5-R; assay: cAMP functional activity assay in HEK-293 cells; assay type: cell-based; parameters: expressed in transfected cells; host or cells: HEK-293; settings: 1 μM concentration where stated
Method: as §2, §3

MC4-R [8] = molecular target: T4, MC4-R; assay: Assay for neutral antagonist, Schild analysis (pA2) against NDP-α-MSH; assay type: cell-based; parameters: expressed in transfected cells; host or cells: HEK-293; settings: Schild analysis vs NDP-α-MSH; for Kb: read-out: pA2 value as antagonist at MC4-R in a normal system (converted)
Method: Assay for Neutral Antagonist. […] These studies were carried out in HEK-293 cells expressing the MC4-R receptor. Cells were incubated with the compounds in the presence of the agonist NDP-α-MSH and the extent of antagonism was measured by the decrease in the level of intracellular cAMP. Screening the compounds for antagonists was done at a single concentration of NDP-α-MSH (1.0 nM) over a compound concentration range of 0.5-5000 nM.
Experimental details were similar to the analysis for agonistic activity described above. Briefly, cells were pre-incubated for 30 minutes with the test compounds at concentrations between 0.5 nM and 5000 nM. The cells were then stimulated with NDP-α-MSH at a concentration of 1 nM for 1 hour. For Schild analysis, the interactions were studied using at least 3 concentrations of the compounds, separated by a log unit, over a full range of the agonist (0.005-5000 nM). cAMP levels was measured in the cell lysates after appropriate dilution. Nonlinear regression analysis with Prism Graph-Pad software was used for Schild analysis and to obtain EC50 values. pA2 values were derived from the Schild plot of the data.

MC4-R [9] = molecular target: T4, MC4-R; assay: Competitive inhibition assay using [I^125]-NDP-α-MSH, hMC4-R membranes; assay type: binding; parameters: host or cells: TREx-293 (HEK-293 stably expressing Tet repressor); settings: 1 μM test compound; read-out: Inhibition at 1 μM (NDP-α-MSH) In Normal System, MC4-R
Summary of the method: as §1

MC4-R [10] = molecular target: T4, MC4-R; assay: cAMP agonist stimulation, low receptor density system (0.1 ng/mL doxycycline); settings: for Efficacy/Intrinsic Activity: 0.1 ng/mL doxycycline, low receptor density hMC4-R system, NDP-α-MSH maximal cAMP = 1.0
MC4-R [11] = molecular target: T4, MC4-R; assay: cAMP agonist stimulation, high receptor density system (10 ng/mL doxycycline); settings: for Efficacy/Intrinsic Activity: 10 ng/mL doxycycline, high receptor density hMC4-R system, NDP-α-MSH maximal cAMP = 1.0
[12] = Penile erection induction in male rats; assay type: in vivo; settings: rat
Summary of the method: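 Male Sprague-Dawley rats (200-250 g), groups of 4-8, dosed IV or ICV at various doses and observed individually for penile erections. Only statistically relevant increases over vehicle-control mean PEs count as induction; IV responses below 1.0 PEs/rat treated as equivocal, some retested ICV.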

[13] = ICV food intake and body weight change; assay type: in vivo; settings: rat, 1 nmol, 24 hours
Summary of the method: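 Rats fitted with intracerebroventricular cannulas and fed ad libitum got a single ICV dose of vehicle or compound (1-3 nmol). Food intake and body-weight change over the 24 h after dosing were compared with a 1-week vehicle baseline. Values at 48 h and 72 h were also recorded to follow return to baseline.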

MC3-R [14] = molecular target: T2, MC3-R; assay: cAMP functional activity assay in HEK-293 cells; assay type: cell-based; parameters: expressed in transfected cells; host or cells: HEK-293; settings: 1 μM concentration where stated
Method: as §2, §3

[15] = IV and IP food intake and body weight change, rats; assay type: in vivo; settings: rat, IV, 10 mg/kg, 24 hours
Method: IV and IP food intake and body weight change. Change in food intake and body weight was evaluated for selected compounds. Male Sprague-Dawley rats or male C57BL/6 mice were utilized. Animals were individually housed in conventional plexiglass hanging cages and maintained on a controlled 12 hour on/off light cycle. Water and powdered (LabDiet, 5P00 Prolab RMH 3000) or pelleted (Harlan Teklad 2018 18% Protein Rodent Diet) food was provided ad libitum. For 1 week before treatment, 24-hour food intake and body weight change was recorded to assess a baseline for the group during vehicle treatment. The rats were dosed IV with vehicle or selected compounds (0.5-3 mg/kg, and in some cases up to 10 mg/Kg) or dosed intraperitoneally (IP) with vehicle or selected compounds (0.5-10 mg/kg, and in some cases up to 50 mg/kg). Mice were dosed IP. The changes in body weight and food intake for the 24 hour period after dosing were determined. The changes in body weight and food intake for the 48 hour and 72 hour periods after dosing were also measured to determined reversal of changes in body weight and food intake effects back to baseline levels.

T1 sequence (Q01727 whole entry): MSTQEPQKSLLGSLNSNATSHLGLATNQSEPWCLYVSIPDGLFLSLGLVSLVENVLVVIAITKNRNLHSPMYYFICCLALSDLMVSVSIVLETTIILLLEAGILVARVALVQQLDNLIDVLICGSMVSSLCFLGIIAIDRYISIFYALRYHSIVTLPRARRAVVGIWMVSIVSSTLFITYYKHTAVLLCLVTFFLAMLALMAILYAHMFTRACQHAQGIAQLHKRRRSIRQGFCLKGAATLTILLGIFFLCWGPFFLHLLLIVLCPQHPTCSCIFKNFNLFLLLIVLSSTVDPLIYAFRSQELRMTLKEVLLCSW

Row | Compound | inhibition at 1 µM (MC1-R [1]) | Ki (MC1-R [1]) | functional status at MC1-R in cAMP assay (MC1-R [2]) | inhibition at 1 µM (MC3-R [4]) | inhibition at 1 µM (MC5-R [5]) | functional status at MC4-R in cAMP assay (MC4-R [6]) | functional status at MC5-R in cAMP assay (MC5-R [7]) | Kb (MC4-R [8]) | inhibition at 1 µM (MC4-R [9]) | Efficacy/Intrinsic Activity (MC4-R [10]) | Efficacy/Intrinsic Activity (MC4-R [11]) | Penile Erection IV ([12]; IV) | decrease in food intake [13] | EC50 (MC4-R [11]) | intrinsic activity at MC4-R in a normal system (MC4-R [6]) | functional status at MC3-R in cAMP assay (MC3-R [14]) | other results
1 | CC(C)C[C@@H]1CN(C(=O)[C@H](N)Cc2ccc(Cl)cc2Cl)[C@@H](CCCNC(=N)N)CN1CCc1ccc2ccccc2c1 [Example 4, N-{3-[1-[2(R)-Amino-3-(2,4-dichloro-phenyl)-propionyl]-5(R)-isobutyl-4-(2-naphthalen-2-yl-ethyl)-piperazin-2(S)-yl]-propyl}-guanidine] | 21% | 1360 nM | no intrinsic activity (intrinsic activity below 0.1 (10%) is classified as inactive or having no intrinsic activity) | 64% | 75% | no intrinsic activity (intrinsic activity below 0.1 (10%) is classified as inactive or having no intrinsic activity) | partial agonist (intrinsic activity between 0.1 (10%) and 0.7 (70%) is classified as a partial agonist) | 20 nM | 99% | None | None | – | – | – | – | – | inhibition in vivo at 10 mg/kg ([3]; 10 mg/kg, read-out: maximal decrease in food intake): 60%
2 | N=C(N)NCCC[C@H]1C(=O)N2C(CC[C@@H]2COc2ccc3ccccc3c2)N1C(=O)[C@@H](Cc1ccc(Cl)cc1Cl)NC(=O)[C@@H]1Cc2ccccc2CN1 (stereo partly drawn) [Example 22, (S)-1,2,3,4-Tetrahydro-isoquinoline-3-carboxylic acid {(R)-1-(2,4-dichloro-benzyl)-2-[(2S,5R)-2-(3-guanidino-propyl)-5-(naphthalen-2-yloxymethyl)-3-oxo-hexahydro-pyrrolo[1,2-a]imidazol-1-yl]-2-oxo-ethyl}-amide] | 75% | 111 nM | – | 88% | 96% | antagonist | – | 7.94 nM | 100% | None | 0.30 | No | 22% | 64 nM | – | – | penile erection response ([12]; IV): no penile erection response
3 | Cc1cc(Cl)ccc1C[C@@H](N)C(=O)N1C[C@@H](C)N(CCc2c[nH]c3ccccc23)C[C@@H]1CCCNC(=N)N [Example 9, N-(3-{1-(2(R)-Amino-(4-chloro-2-methyl-phenyl)-propionyl)-5(R)-methyl-4-[2-(1H-indol-3-yl)-ethyl]-piperazin-2(S)-yl}-propyl)-guanidine] | 40% | 1730 nM | no intrinsic activity (intrinsic activity below 0.1 (10%) is classified as inactive or having no intrinsic activity) | 74% | 75% | full agonist | no intrinsic activity (intrinsic activity below 0.1 (10%) is classified as inactive or having no intrinsic activity) | – | 98% | None | 0.73 | No | 16% | 22 nM | 1 | no intrinsic activity (intrinsic activity below 0.1 (10%) is classified as inactive or having no intrinsic activity) | Penile Erection ICV ([12]; ICV): No; penile erection response ([12]; ICV, 0.01 to 10 nmol): no penile erection response; penile erection response ([12]; IV, 0.3 to 30 μg/kg): no penile erection response; decrease in body weight [13]: 2%; maximal decrease in food intake ([3]; 3 mg/kg): 10%
4 | Cc1cc(Cl)ccc1C[C@@H](N)C(=O)N1C[C@@H](C)N(C(=O)Cc2ccc3ccccc3c2)C[C@@H]1CCCNC(=N)N [Example 10, N-{3-[1-[2(R)-Amino-3-(4-chloro-2-dimethyl-phenyl)-propionyl]-5(R)-methyl(2-naphthalen-2-yl-acetyl)-piperazin-2(S)-yl]-propyl}-guanidine] | 3% | 462 nM | partial agonist (intrinsic activity between 0.1 (10%) and 0.7 (70%) is classified as a partial agonist) | 34% | 36% | agonist (intrinsic activity of 0.7 (70%) or higher is classified as an agonist) | agonist (intrinsic activity of 0.7 (70%) or higher is classified as an agonist) | – | 96% | 0.23 | 0.69 | Yes* | – | 26 nM | 0.9 | partial agonist (intrinsic activity between 0.1 (10%) and 0.7 (70%) is classified as a partial agonist) | animals responding ([12]; IV, 0.3 to 30 μg/kg): not more than 66%; maximal decrease in food intake [15]: 33%; maximal decrease in food intake ([3]; 10 mg/kg): 27%; EC50 (MC4-R [10]): 38 nM
5 | N-{3-[1-[2(R)-Amino-3-(2-methyl, 4-chloro-phenyl)-propionyl]-5(R)-methyl-4-(2-naphthalen-2-yl-ethyl)-piperazin-2(S)-yl]-propyl}-guanidine [Example 26] | – | – | – | – | – | no intrinsic activity (intrinsic activity below 0.1 (10%) is classified as inactive or having no intrinsic activity) | – | – | – | – | – | – | – | – | – | – | pA2 value as antagonist at MC4-R in a normal system (MC4-R [8]): 8.3

Source: patent publication US20090081197A1 (Palatin Technologies, Inc., priority 2007, published 2009)
